Assay: gradient 5% acetonitrile 3 min, to 50% in 2 min, to 85% in 15 min, held 3 min, 100 µL/min
Conditions: column: Zorbax Extend-C18 2.1 x 50 mm; eluents: water / acetonitrile, 0.1% formic acid
Method in brief: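 Over 3 months, pure standards in mixtures of ~100 molecules were run by HPLC coupled to a quadrupole time-of-flight mass spectrometer in positive and negative ionization mode. The column was a Zorbax Extend-C18 (2.1 × 50 mm, 1.8 μm) at 100 μL/min, eluted with water and acetonitrile each holding 0.1% formic acid, with 40 μL dead and 900 μL dwell volumes. Retention time was determined from adduct peaks chosen by software and checked manually.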

SMILES | RP-LC retention time [s]
Cc1cc(S(=O)(=O)C(CNC(=O)c2cccs2)c2ccco2)ccc1F (centres undefined) | 815
COCCCNC(=O)Cn1ncc2c(C)n(Cc3ccc(Cl)cc3)c(C)c2c1=O | 775
CC(C(=O)Nc1ccccc1C(F)(F)F)N1C(=O)c2ccccc2S1(=O)=O (centres undefined) | 828
CSc1ccccc1NC(=O)C(=O)NCC1(c2cccs2)CCCC1 | 1280
COc1ccc(-c2noc(C3CCCN3C(=O)c3ccc(C#N)cc3)n2)cc1OC (centres undefined) | 783
Cc1ccc(S(=O)(=O)N2CCC(C3CCNC3)CC2)cc1F (centres undefined) | 651
CCC(N)Cc1c[nH]c2ccccc12 (centres undefined) | 646
CC12C=CC(O1)C1C(=O)N(c3ccc(N4CCOCC4)cc3)C(=O)C12 (centres undefined) | 662
O=C(CN1CCCCC1c1nc(C2CC2)no1)Nc1ccccn1 (centres undefined) | 734
CC1=C(c2ccc(C)cc2)S(=O)(=O)N=C1N1CCCN(C(=O)c2ccccc2)CC1 | 837
O=c1c2cnc3nc(-c4ccccc4)nn3c2ccn1CCc1c[nH]c2ccccc12 | 925
Cc1sc(NC(=O)CCCc2nc(-c3ccccc3)no2)nc1-c1ccc(Cl)cc1 | 1190
CCCCn1c(CN2CCOCC2)nc2cc(NC(=O)CC(C)C)ccc21 | 665
Cc1ncc2c(n1)CCN(C(=O)c1c(F)cccc1Cl)C2 | 663
COC(=O)c1c(C)[nH]c(C(=O)N2CCCC(C(=O)N(C)Cc3ccco3)C2)c1C (centres undefined) | 726
CCCN(CCC)C1CCc2cccc(OC)c2C1 (centres undefined) | 762
Cc1ccccc1-c1noc(Cn2c(=O)n(-c3ccccc3F)c(=O)c3sccc32)n1 | 1030
COCCOC1CCOC2(CCN(S(=O)(=O)c3cccc(OC)c3)CC2)C1 (centres undefined) | 818
CCOc1ccccc1NC(=O)CSc1ncnc2c1nnn2-c1ccc(OC)cc1 | 1030
CC(C)=C1C(=O)Nc2ccc(S(=O)(=O)N3CCN(c4ccccn4)CC3)cc21 | 612
Cc1cc2c(cc1NC(=O)C1CCC(C)CC1)n(C)c(=O)c(=O)n2C (centres undefined) | 733
Cc1c(-c2ccnc(N3CCN(C)CC3)n2)cnc2nc(-c3ccccc3)nn12 | 640
COc1ccc(CC(=O)N(C)CC2(C)CCOCC2)cc1Cl | 818
CCN1C(=O)COc2cc(-c3noc(C(=O)NCCC(C)C)n3)ccc21 | 979
O=C(CN1C(=O)C(C(=O)N2CCCC2)Sc2ccccc21)NCc1ccccc1 (centres undefined) | 870
Cc1nc(-c2cccnc2)nc2c1CCC(=O)N2CC1CCCO1 (centres undefined) | 626
Cc1oc(C2CCN(C(=O)Nc3cccc(Cl)c3C)CC2)nc1C(=O)N1CCCC1 | 813

SMILES | RP-LC retention time [s]
Cc1cc(C)cc(OCCNS(=O)(=O)c2cccs2)c1 | 935
CCC(CC)C(=O)Nc1nc(-c2ccc3c(c2)NC(=O)C(C)O3)c(C)s1 (centres undefined) | 922
Cc1ccc(C(=O)N2CCc3sc(C(=O)N4CCC5(CC4)OCCO5)cc3C2)cc1 | 793
Cc1cc(C)n(-c2ccnc(N3CCC(C(=O)NCc4ccccc4)CC3)n2)n1 | 832
Cc1ccc(-c2ccc(N3CCN(c4ccccn4)CC3)nn2)cc1S(=O)(=O)N1CCCC1 | 656
COc1ccc(CNC(=O)C2CCCN(c3nccnc3Sc3ccccc3)C2)cc1OC (centres undefined) | 1120
CCC1=NS(=O)(=O)c2cccnc2N1c1ccc(F)c(C)c1 | 897
COc1ccc(OC)c(CNC(=O)c2ccc3c(c2)NC(=O)C2CCCCN32)c1 (centres undefined) | 806
Cc1nc(-c2ccc(N3CCN(C(=O)c4ccoc4)CC3)nc2)sc1C | 738
Cc1cc(C)cc(OCC(=O)Nc2nc(-c3ccccc3)cs2)c1 | 1210
CC(=O)c1cccc(NC(=O)Cn2c(=O)n(-c3ccc(C)cc3)c(=O)c3c2cc(C)n3C)c1 | 819
O=C(Cc1ccc(Br)cc1)NC1CCN(c2cc(-c3ccc(Cl)cc3)[nH]n2)C1 (centres undefined) | 854
COc1cc(-c2ccc(F)cc2)nc2ccc(NS(=O)(=O)c3ccccc3)cc12 | 754
COc1ccccc1C(=O)N1CCC2(CC1)c1nccn1-c1ccccc1CN2CC(C)C | 692
CCOc1ccc(NS(=O)(=O)c2cc(C(=O)Nc3cccc(Cl)c3)n[nH]2)cc1 | 916
COc1cccc(-c2nc(-c3cccc(-c4ccnn4C)c3)no2)c1 | 1120
CC1Cc2ccccc2N1C(=O)CCC(=O)N1CCN(c2cc(=O)n(C(C)C)c(=O)n2C(C)C)CC1 (centres undefined) | 890
O=C(Cc1ccccc1)Nc1nnc(CCSCCc2nnc(NC(=O)Cc3ccccc3)s2)s1 | 933
Cn1c(=O)n(C)c2cc(CNCCc3ccc(F)cc3)ccc21 | 609
CCOc1ccc(CNC(=O)C2CCCN(c3nccnc3Sc3ccccc3)C2)cc1OCC (centres undefined) | 1030
Cc1c(Cl)cccc1S(=O)(=O)NC1CCN(c2ccccc2)C1=O (centres undefined) | 970
COCCC(=O)N1CC(c2nc(CCOC)no2)C1 | 581
CN1CCCc2cc(C(CNC(=O)C(=O)NCc3ccc4c(c3)OCO4)N3CCCCC3)ccc21 (centres undefined) | 734
COc1ccc(-c2nnc(-c3cccc(S(=O)(=O)N(C)C)c3)o2)cc1 | 908
COc1ccc(/C=C/C(=O)Nc2ccccc2C(=O)O)cc1OC | 927
O=C(Cn1nc2ccc(SCc3ccc(Cl)cc3)nn2c1=O)NC1CCCCC1 | 870

Other lines, results leading:

RP-LC retention time [s] | SMILES
729 | O=C(Cn1nc2n(c1=O)CCCCC2)Nc1ccc(F)c(Cl)c1
802 | O=C(Cn1ccc2sccc2c1=O)Nc1ccc(Cl)cc1F
832 | Cc1cccc(C)c1NC(=O)Cn1nc2cc(-c3ccccc3)nc(C)n2c1=O
740 | CC1Oc2ccc(S(=O)(=O)N3CCC(C(=O)NC4CCCC4)CC3)cc2NC1=O (centres undefined)
723 | O=C(Nc1cccc(-c2ccc(N3CCOCC3)nn2)c1)Nc1ccc(F)cc1F
839 | COc1ccc(NC(=O)Cn2c(=O)c(CCC(=O)NC3CCCCC3)nc3ccccc32)c(OC)c1
1160 | Cc1ccc(C)c(NC(=O)CSc2cc(N3CCN(c4ccccc4F)CC3)ncn2)c1
762 | Cc1cccc(N(C)C(=O)C(C)n2cnc3nc4c(cc3c2=O)CCCC4)c1 (centres undefined)
742 | CCn1cc2c3c(cccc31)CN(C(=O)Nc1cc(OC)c(OC)c(OC)c1)CC2
848 | COc1ccccc1-c1noc(C2CCCN2C(=O)Nc2ccccc2)n1 (centres undefined)
881 | Cc1cccc(Cn2nc3ccc(S(=O)(=O)N4CCCC4)cn3c2=O)c1
763 | O=C(Cn1nc2c(N3CCCCCC3)nccn2c1=O)Nc1cccc(Cl)c1
806 | COc1cccc(N2CCN(c3ccnc(SCC(=O)Nc4ccc(F)c(Cl)c4)n3)CC2)c1
953 | COc1ccc(NC(=O)Nc2ccc3c(c2)CCN3S(=O)(=O)c2ccc(C)cc2)cc1
691 | Cc1oc(C2CCN(C(=O)Nc3ccccc3Cl)CC2)nc1C(=O)N(C)C
708 | COc1cccc(NC(=O)Cn2c(C)nc3onc(C)c3c2=O)c1
520 | Cn1cc(C(=O)NCCn2ncccc2=O)nn1
799 | CC1=C(c2cccc(Cl)c2)S(=O)(=O)N=C1N1CCC(NC(=O)c2ccoc2)CC1

RP-LC retention time [s] | SMILES
972 | COc1ccc(Cl)cc1NC(=O)Cn1cccc1-c1nnc(C2CC2)o1
885 | Cc1cc2c(c(=O)n(-c3ccccc3)c(=O)n2CC(=O)Nc2ccc(Cl)cc2)n1C
758 | O=C(Nc1ccccc1F)N1CC2CN(S(=O)(=O)c3ccc(F)cc3)CC(C1)O2
819 | Cc1cccc(NC(=O)C2CCN(S(=O)(=O)c3cc(C(=O)N4CCCC4)cs3)CC2)c1
844 | O=C(Nc1ccc2c(c1)CN(S(=O)(=O)Cc1ccccc1)CCO2)C1CC1
552 | Cn1nc2n(c1=O)CCN(C(=O)c1ccn[nH]1)CC2
708 | CCCn1nc2n(c1=O)CCN(Cc1cn[nH]c1-c1ccc(OCC)c(Cl)c1)C2
994 | O=C1C2ON(c3ccccc3)C(c3ccccn3)C2C(=O)N1c1cccc(C(F)(F)F)c1 (centres undefined)
616 | O=C(Cn1cnc2ccccc2c1=O)N1CCC(Cn2cccn2)CC1
754 | CCN(CC)C(=O)CS(=O)Cc1cnn(-c2ccccc2)c1-n1cccc1 (centres undefined)
771 | COc1ccccc1C(=O)N1CCN(S(=O)(=O)c2cc3c4c(c2)CCC(=O)N4CCC3)CC1
1170 | O=C(c1ccco1)N1CCc2c([nH]c3ccccc23)C1c1ccc(Cl)cc1 (centres undefined)
961 | Cc1ccc(C)c(S(=O)(=O)NCc2ccc(C(=O)N3CCCCC3C)cc2)c1 (centres undefined)
740 | O=S(=O)(Nc1ccc(Cl)cc1F)c1c[nH]c2ncccc12
659 | COC(=O)c1cnc2nc(C)ccc2c1NCc1ccc2c(c1)OCO2
929 | C=CCN1C(=O)C2(c3cc(Br)ccc31)c1[nH]c3ccccc3c1CCN2C(C)=O (centres undefined)
840 | Cc1cc(-c2nnc(C3CC3)o2)c(C)n1CC(=O)NCc1ccc(F)cc1Cl
652 | CCC(=O)N1CCc2cc(N3CC(C(=O)NCC4CC4)CC3=O)ccc21 (centres undefined)

From the METLIN SMRT retention time set (Domingo-Almenara et al. 2019)
